This is an account of results in publication PMC6317155, “Identification of Small Peptides that Inhibit NADPH Oxidase (Nox2) Activation” (Antioxidants, 2018).

For one series, the target named is T1, lung aiPLA2 activity (Mus musculus, UniProt O08709).
T1 construct: from tissue; host or cells: mouse (C57Bl/6) lung homogenate
T1 sequence (O08709 1-224): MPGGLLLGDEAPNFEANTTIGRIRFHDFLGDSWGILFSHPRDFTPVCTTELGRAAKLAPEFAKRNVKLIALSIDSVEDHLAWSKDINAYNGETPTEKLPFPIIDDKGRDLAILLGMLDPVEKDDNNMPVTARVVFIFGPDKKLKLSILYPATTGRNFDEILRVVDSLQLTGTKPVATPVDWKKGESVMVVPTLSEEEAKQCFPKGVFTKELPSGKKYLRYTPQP
The experiment in a line: Lung aiPLA2 activity after a single IT or IV dose in mice in vivo. To be noted: single dose in liposomes, estimated. As to the method: For administration to mice, peptides were incorporated into liposomes that were prepared as previously described. Liposome composition was dipalmitoylphosphatidylcholine (DPPC): egg phosphatidylcholine: phosphatidylglycerol: cholesterol in the molar ratio 50:25:10:15. To measure the in vivo effect of the peptides, mice were injected with PIP-2 by either the intratracheal (IT) or the intravenous (IV) route and were sacrificed at intervals; lungs were removed from mice and homogenized for measurement of aiPLA2 activity.
(§1) The PLA2 activity of Prdx6 was measured as described previously. The substrate was dipalmitoylphosphatidylcholine (DPPC) with ^3H-9,10-palmitate in the sn-2 position of DPPC incorporated into lung surfactant-like liposomes as described above; substrate was incubated with enzyme for 60 min and activity was calculated from the liberation of ^3H-palmitate as measured by scintillation counting.
To determine the effect and duration of a single dose of PIP-2 on aiPLA2 activity of mouse lungs in vivo, mice were injected with PIP-2 in liposomes by either the intratracheal (IT) or the intravenous (IV) route; individual lungs were removed at intervals, homogenized, and assayed for aiPLA2 activity. […]
Figure 4 Persistence and stability of PIP-2 in vivo. […] Lungs were harvested at intervals between 4 and 72 h after the PIP-2 administration, homogenized, and analyzed for aiPLA2 activity. […]

In series [1] the target is T2, PLA2 activity of Prdx6 (aiPLA2) (Mus musculus, UniProt O08709, D140A).
T2 construct: from tissue; host or cells: mouse (C57Bl/6) lung homogenate
T2 sequence (O08709 2-224 D140A): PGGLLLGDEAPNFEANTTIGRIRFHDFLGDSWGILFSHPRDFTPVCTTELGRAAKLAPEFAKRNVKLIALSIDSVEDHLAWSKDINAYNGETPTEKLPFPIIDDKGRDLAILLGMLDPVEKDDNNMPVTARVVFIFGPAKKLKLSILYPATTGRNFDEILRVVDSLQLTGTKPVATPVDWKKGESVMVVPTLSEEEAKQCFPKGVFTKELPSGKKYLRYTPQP
Nature of the series: PLA2 activity of lung homogenate at pH 4 without Ca2+ (aiPLA2), PIP-2 added to the assay. In kind it is biochemical. The note with it: D140A-Prdx6 knock-in mouse lung homogenate, no Ca2+; no inhibitor 0.2 ± 0.03; mean ± range, n = 2. On the procedure: as §1
(§2) Lung cells, like those of other organs, have multiple PLA2 enzymes. We evaluated the specificity of PIP-2 for inhibition of Prdx6 by measuring aiPLA2 activity in the lung homogenate of wild type and D140A-Prdx6 mutant mice. […] Measurement of PLA2 activity at pH 4 in the absence of Ca^2+ is relatively specific for the PLA2 activity of Prdx6 (aiPLA2). This activity was inhibited by 91% following addition of PIP-2 to the assay of the lung homogenate (Table 6). Although Prdx6 has relatively little PLA2 activity when measured at pH 7, other lung PLA2 enzymes, some of which are Ca^2+-dependent for activity, show activity at neutral pH; this activity was not affected by mutation of D140 in Prdx6 (Table 6). Unlike the effect of PIP-2 on aiPLA2 activity at pH 4, the addition of PIP-2 had no effect on activity of the lung PLA2 enzymes that are active at pH 7. Thus, aiPLA2 appears to be the only PLA2 enzyme, at least in the lung, that is inhibited by PIP-2.

In series [2] the target is T3, PLA2 activity of Prdx6 (aiPLA2) (Mus musculus, UniProt O08709).
T3 construct: from tissue; host or cells: mouse (C57Bl/6) lung homogenate
T3 sequence (O08709 2-224): T2 sequence (O08709 2-224 D140A) with A139D
The description is as above. Format: biochemical. The note with it: wild type mouse lung homogenate, no Ca2+; no inhibitor 8.7 ± 0.16; mean ± range, n = 2. As to the method: as §1, §2

The test system of series [3] is lung PLA2 enzymes that are active at pH 7. The experiment in a line: PLA2 activity of lung homogenate at pH 7 with Ca2+ (other lung PLA2 enzymes), PIP-2 added to the assay. Format: biochemical, mouse. As to the method: as §1, §2
The target in series [4] is T4, aiPLA2 activity of recombinant human Prdx6 (Homo sapiens, UniProt P30041).
T4 sequence (P30041 1-224): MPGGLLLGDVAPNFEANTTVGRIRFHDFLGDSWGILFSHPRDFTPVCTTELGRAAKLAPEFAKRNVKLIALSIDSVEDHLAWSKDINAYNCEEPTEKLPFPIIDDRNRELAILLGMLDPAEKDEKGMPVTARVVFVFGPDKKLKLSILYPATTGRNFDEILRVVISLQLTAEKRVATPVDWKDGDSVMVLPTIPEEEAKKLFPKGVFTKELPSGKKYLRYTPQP
Nature of the series: Chemical stability of dry powder on laboratory shelf, read out as inhibition of aiPLA2 activity. In kind it is physicochemical. To be noted: room temperature, nine months, data not shown. The text has this: These peptides have a molecular mass of 1156–1178 with a predicted isoelectric point in the slightly basic range. Each of the three peptides contains four hydrophobic amino acid residues, with two of those on the same surface, and one negatively charged hydrophilic aa. The PIP-2 sequence has three while PIPs-1 and -3 have only two positively charged aa. PIP-1 is slightly more hydrophobic than the other two peptides but, in our experience, all three peptides readily dissolve in aqueous solution. […] No antigenic determinants were identified in these peptides as determined by the free on-line program provided by the Immunomedicine Group of the Universidad Complutense (Madrid, Spain). The chemical stability of PIP-2 was tested by placing the dry powder on the laboratory shelf at room temperature; its inhibition of the aiPLA2 activity of recombinant human Prdx6 was unchanged when measured after nine months of shelf storage indicating good stability of the peptide as a dry powder (data not shown); stability of the other peptides was not tested.

The target in series [5] is T4, aiPLA2 activity of recombinant human Prdx6. The experiment in a line: aiPLA2 (PLA2) activity of recombinant human Prdx6 in vitro, 3H-DPPC liposome substrate. In kind it is biochemical. On the procedure: as §1
The effect of the PIP peptides on the aiPLA2 activity of human recombinant Prdx6 was determined by in vitro assay; the effective concentration of inhibitor was corrected for purity of the PIP preparation. Saturating concentrations of all three peptides (PIP-1, PIP-2, PIP-3) inhibited aiPLA2 activity by ~70% (Figure 2). The basis for the remaining 30% of activity that was not inhibited is unclear.

For series [6], the target named is T5, aiPLA2 activity of lung homogenate (Mus musculus, UniProt O08709).
T5 construct: from tissue; host or cells: mouse (C57Bl/6) lung homogenate
T5 sequence (O08709 1-224): T1 sequence (O08709 1-224)
Nature of the series: aiPLA2 activity of homogenate of isolated mouse lungs perfused with PIP-2. To be noted: inferred from lack of effect without liposomal carrier in lungs. As to the method: as §1
To confirm the requirement for liposomes as a delivery vehicle, lungs were perfused for 15 min with PIP-2 incorporated or not into liposomes, then perfused with fresh medium to clear extracellular PIP-2, and then homogenized and assayed for aiPLA2 activity. PIP-2 administered without liposomes had no effect on aiPLA2 activity of the lung homogenate while PIP-2 in liposomes inhibited activity by ~80% (Table 5).

Where a chain is given by its changes, count along the chain named.

Take LHDFRHQIL [PIP-2]: at lung aiPLA2 activity, the “Half-time for recovery of lung aiPLA2 activity (decrease of in vivo inhibition)” value is listed as ~ 50 h. Also, in series [1], the “PLA2 activity, pH 4, D140A-Prdx6” value is recorded as 0.2 ± 0.06 nmol/min/mg Prot. Moreover, the “PLA2 activity, pH 4, WT” value in series [2] is 1.6 ± 0.10 nmol/min/mg Prot. In addition, the “PLA2 activity, pH 7 + Ca2+, D140A-Prdx6” value in series [3] (D140A-Prdx6 knock-in mouse lung homogenate, no inhibitor 8.3 ± 0.26, mean ± range, n = 2) is listed as 8.5 ± 0.10 nmol/min/mg Prot. Further, the “Effect on activity of lung PLA2 enzymes active at pH 7” value in series [3] (PIP-2 added to assay of lung homogenate) was “no effect”. Besides, the “Chemical stability: inhibition of aiPLA2 activity after shelf storage” value in series [4] is “unchanged”. Further, the “Activity (aiPLA2 of recombinant hPrdx6), human-derived peptides” value in series [5] (deletions from 16-aa human-derived SP-A peptide, no-peptide control 92.0, one assay done in duplicate) is listed as 29.9 nmol/min/mg Prot. Also, the “Inhibition of aiPLA2 activity at saturating concentrations of peptide” value in series [5] (recombinant human Prdx6, Figure 2, mean + SEM, n = 3) was ~ 70%. In addition, in series [5] (recombinant human Prdx6, concentration corrected for purity of the PIP preparation, Figure 2, n = 3), the “Concentration of peptide for inhibition of aiPLA2 activity by 50%” value was ~ 6.6 µg/mg Prdx6. The “Ability to cross the cell membrane” value in series [6] was “not able to cross the cell membrane”.
